Results from patent US20100227853A1, “INHIBITORS OF CYCLIC AMP PHOSPHODIESTERASES” (Trustees of Boston College, priority 2008, published 2010).

What was measured:
[1] = system: PDE4A, PDE4B, PDE4D, PDE7A, PDE7B, PDE8A, PDE3A; test: Summary of PDE inhibitor profile; set-up: key to PDE inhibitor profile (Table 17): (1): Strong PDE4A, PDE4B inhibitor; (2): Strong PDE4A inhibitor; (3): Strong PDE4B, moderate PDE4A inhibitor; (4): Moderate PDE4A, PDE4B inhibitor; (5): Moderate PDE4B inhibitor; key to inhibitor class, Table 15: (1): Strong PDE4A5 inhibitor; (2): Strong PDE4A, 4B inhibitor; Moderate PDE4D inhibitor; (3): Strong PDE4A. 4B inhibitor; (4): Strong PDE4A, 4B, PDE7A inhibitor: Weak PDE4D inhibitor; details: for PDE inhibitor profile (Table 17): overall classification, Table 17 footnotes
PDE4B3 = target: T1, PDE4B3 (Mus musculus, UniProt Q8VBU5); test: 5FOA growth assay in fission yeast strain expressing PDE4B3; format: cell-based, Murine; details: 20 uM
T1 construct: targets used in the assays are full-length proteins (as opposed to simply the catalytic domain); expressed in transfected cells; host or cells: Schizosaccharomyces pombe, PDE gene integrated in place of cgs2
T1 sequence (Q8VBU5 1-721): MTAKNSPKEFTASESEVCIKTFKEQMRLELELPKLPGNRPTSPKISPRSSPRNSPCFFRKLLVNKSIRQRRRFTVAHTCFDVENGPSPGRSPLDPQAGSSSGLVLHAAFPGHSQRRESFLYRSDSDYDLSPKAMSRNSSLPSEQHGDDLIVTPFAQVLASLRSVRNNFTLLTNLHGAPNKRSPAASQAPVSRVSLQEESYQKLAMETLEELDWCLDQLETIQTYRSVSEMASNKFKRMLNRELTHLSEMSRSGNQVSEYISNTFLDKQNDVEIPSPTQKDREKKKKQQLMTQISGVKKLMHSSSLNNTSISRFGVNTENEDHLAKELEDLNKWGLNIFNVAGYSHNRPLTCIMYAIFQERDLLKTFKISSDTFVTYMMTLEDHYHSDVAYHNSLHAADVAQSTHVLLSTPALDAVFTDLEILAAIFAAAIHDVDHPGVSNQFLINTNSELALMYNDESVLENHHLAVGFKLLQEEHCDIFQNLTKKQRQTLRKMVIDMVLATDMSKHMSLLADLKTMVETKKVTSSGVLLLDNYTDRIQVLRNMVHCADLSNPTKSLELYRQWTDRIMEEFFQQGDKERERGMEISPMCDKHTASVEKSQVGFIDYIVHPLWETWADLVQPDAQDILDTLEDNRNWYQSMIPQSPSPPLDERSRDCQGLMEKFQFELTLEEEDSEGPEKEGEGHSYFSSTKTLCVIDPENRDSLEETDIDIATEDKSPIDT
Description: (§1) High throughput drug screens were carried out at the Broad Institute's Chemical Biology Program screening facility (Broad Institute, Cambridge, Mass.). Depending upon the strain, cultures were pregrown to exponential phase in EMM complete medium containing from 0.5 to 2.5 mM cAMP to repress fbp1-ura4 transcription. […] Starting cell concentrations ranged from 0.5×10^5 to 4×10^5 cells/ml depending on the screening strain. […] Other positive control dishes contained 5 mM cAMP in the 5FOA medium. Cultures were grown for 48 hours at 30° C., sealed in an airtight container with moist paper towels to prevent evaporation. Optical densities (OD600) of cultures were measured using a microplate reader. Bioinformatic analysis of the results to determine composite Z scores was performed as previously described^30, 31.
(§2) To determine whether the 5FOA growth phenotype could be exploited for high throughput drug screening, strains expressing PDE2A, PDE4A, PDE4B, or PDE8A were pre-grown in EMM medium containing cAMP and then transferred to 5FOA medium in 384 well microtiter plates in the presence or absence of cAMP. OD600 measurements were taken after 48 hours incubation at 30° C.
(§3) Cells were pregrown in EMM medium [MP Biomedicals (Solon, Ohio), 3% glucose, filter-sterilized to avoid carmelization, which would introduce variability into the optical density of the medium] containing from 0 mM to 2.5 mM cAMP (or either 0.5 mM or 1.0 mM cGMP). This was to repress expression of the fbp1-ura4 reporter prior to exposure of cells to 5FOA medium. Cells were grown at 30° C. to exponential phase (approximately 10^7 cells/ml). […] Starting cell concentrations ranged from 0.5×10^5 to 4×10^5 cells/ml depending on the screening strain. […] Other positive control dishes contained 5 mM cAMP in the 5FOA medium for PDEs that lack appropriate control compounds. Cultures were grown for 48 hours at 30° C., sealed in an airtight container with moist paper towels to prevent evaporation. Optical densities (OD600) of cultures were measured using a microplate reader. Bioinformatic analysis of the results to determine composite Z scores was performed as previously described (1, 3).

PDE4A1 = target: T2, PDE4A1 (Mus musculus, UniProt O89084); test: 5FOA growth assay (high throughput screen, ED50) in fission yeast strain expressing PDE4A1; format: cell-based; details: 20 uM; PDE 4A1
T2 construct: targets used in the assays are full-length proteins (as opposed to simply the catalytic domain); expressed in transfected cells; host or cells: Schizosaccharomyces pombe, PDE gene integrated in place of cgs2
T2 sequence (O89084 1-610 isoform O89084-2): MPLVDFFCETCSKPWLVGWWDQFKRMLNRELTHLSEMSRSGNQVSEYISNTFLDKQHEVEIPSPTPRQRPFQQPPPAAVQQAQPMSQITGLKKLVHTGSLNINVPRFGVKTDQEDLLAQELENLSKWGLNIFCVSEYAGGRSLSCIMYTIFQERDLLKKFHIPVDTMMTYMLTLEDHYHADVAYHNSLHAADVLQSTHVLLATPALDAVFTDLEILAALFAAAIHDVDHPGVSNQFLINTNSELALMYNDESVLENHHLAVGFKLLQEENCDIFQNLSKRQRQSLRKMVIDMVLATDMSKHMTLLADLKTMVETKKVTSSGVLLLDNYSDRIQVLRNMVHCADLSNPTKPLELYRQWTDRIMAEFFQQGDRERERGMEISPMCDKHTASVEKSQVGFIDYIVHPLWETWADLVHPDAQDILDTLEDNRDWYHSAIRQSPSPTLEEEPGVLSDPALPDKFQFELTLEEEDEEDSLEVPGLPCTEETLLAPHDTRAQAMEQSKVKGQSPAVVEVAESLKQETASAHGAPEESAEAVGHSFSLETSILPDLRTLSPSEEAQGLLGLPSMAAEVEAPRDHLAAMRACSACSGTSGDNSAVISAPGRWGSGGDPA
Description: as §1, §2, §3

PDE4A5 = target: T3, PDE4A5 (Rattus norvegicus, UniProt P54748); test: 5FOA growth assay in fission yeast strain expressing PDE4A5; format: cell-based; details: 20 uM
T3 construct: targets used in the assays are full-length proteins (as opposed to simply the catalytic domain); expressed in transfected cells; host or cells: Schizosaccharomyces pombe, PDE gene integrated in place of cgs2
T3 sequence (P54748 1-844): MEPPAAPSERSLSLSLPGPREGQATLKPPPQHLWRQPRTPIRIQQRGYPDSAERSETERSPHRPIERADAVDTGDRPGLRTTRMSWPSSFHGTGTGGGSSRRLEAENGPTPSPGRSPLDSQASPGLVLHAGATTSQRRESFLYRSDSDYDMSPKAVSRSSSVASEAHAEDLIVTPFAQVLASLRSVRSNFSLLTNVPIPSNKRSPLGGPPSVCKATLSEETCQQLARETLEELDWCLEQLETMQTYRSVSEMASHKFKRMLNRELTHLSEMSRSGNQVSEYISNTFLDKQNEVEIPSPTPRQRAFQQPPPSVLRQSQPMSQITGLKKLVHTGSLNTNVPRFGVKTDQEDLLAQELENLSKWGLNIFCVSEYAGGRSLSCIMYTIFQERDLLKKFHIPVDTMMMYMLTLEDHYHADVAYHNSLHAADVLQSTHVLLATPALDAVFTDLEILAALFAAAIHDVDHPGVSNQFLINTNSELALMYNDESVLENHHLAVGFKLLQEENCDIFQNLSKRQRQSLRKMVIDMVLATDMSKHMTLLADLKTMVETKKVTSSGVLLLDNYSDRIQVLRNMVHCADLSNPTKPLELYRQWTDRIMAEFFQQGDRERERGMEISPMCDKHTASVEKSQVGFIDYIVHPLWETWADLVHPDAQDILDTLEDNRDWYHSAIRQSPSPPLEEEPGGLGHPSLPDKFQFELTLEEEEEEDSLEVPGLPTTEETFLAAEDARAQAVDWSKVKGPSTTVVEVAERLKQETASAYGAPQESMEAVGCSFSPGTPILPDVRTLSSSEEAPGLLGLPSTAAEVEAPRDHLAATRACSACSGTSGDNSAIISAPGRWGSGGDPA
Description: High throughput drug screens were carried out at the Broad Institute's Chemical Biology Program screening facility (Broad Institute, Cambridge, Mass.). Depending upon the strain, cultures were pregrown to exponential phase in EMM complete medium containing from 0.5 to 2.5 mM cAMP to repress fbp1-ura4 transcription. Cells were collected by centrifugation, resuspended in 5FOA medium, and 25 μl were transferred to 384-well microtiter dishes (untreated, with flat clear bottoms) that had been pre-filled with 25 μl 5FOA medium and pre-pinned with 100 nl of compounds (stock solutions were generally 10 mM) from a subset of the Prestwick Bioactive and the Microsource Spectrum compound libraries. Starting cell concentrations ranged from 0.5×10^5 to 4×10^5 cells/ml depending on the screening strain. […] Other positive control dishes contained 5 mM cAMP in the 5FOA medium. Cultures were grown for 48 hours at 30° C., sealed in an airtight container with moist paper towels to prevent evaporation. Optical densities (OD600) of cultures were measured using a microplate reader. Bioinformatic analysis of the results to determine composite Z scores was performed as previously described^30, 31.
Cells were pregrown in EMM medium [MP Biomedicals (Solon, Ohio), 3% glucose, filter-sterilized to avoid carmelization, which would introduce variability into the optical density of the medium] containing from 0 mM to 2.5 mM cAMP (or either 0.5 mM or 1.0 mM cGMP). This was to repress expression of the fbp1-ura4 reporter prior to exposure of cells to 5FOA medium. Cells were grown at 30° C. to exponential phase (approximately 10^7 cells/ml). Cells were collected by centrifugation and resuspended in 5FOA medium, and 25 μl were transferred to 384-well microtiter dishes (untreated, with flat clear bottoms) that had been pre-filled with 25 μl 5FOA medium and pre-pinned with 100 nl of compounds (stock solutions were generally 10 mM). Starting cell concentrations ranged from 0.5×10^5 to 4×10^5 cells/ml depending on the screening strain. […] Other positive control dishes contained 5 mM cAMP in the 5FOA medium for PDEs that lack appropriate control compounds. Cultures were grown for 48 hours at 30° C., sealed in an airtight container with moist paper towels to prevent evaporation. Optical densities (OD600) of cultures were measured using a microplate reader. Bioinformatic analysis of the results to determine composite Z scores was performed as previously described (1, 3).

Row | 1 Assay (20 uM) 4B3 (PDE4B3; PDE 4B3) | 1 Assay (20 uM) 4A1 (PDE4A1) | Structure (SMILES) | inhibitor class, Table 15 [1] | PDE inhibitor profile (Table 17) [1] | also measured
1 |  |  | COC(=O)C1=C(C)N(C)C(=O)/C1=C\c1cccs1 [Compound 27-1] | 27-1 (1) |  | 
2 | 99.04 ND ND ND ND | 56.62 ND ND ND ND | CC(C)n1c2ccccc2c2nc3ccccc3nc21 [1422, I02] |  | 1422, I02 (1) | 
3 |  |  | COC(=O)C1=C(C)N(CC(C)C)C(=O)/C1=C\c1cccs1 [Compound 27-3] | 27-3 (1) |  | 
4 |  |  | COC(=O)C1=C(C)N(CC(C)C)C(=O)/C1=C\c1ccco1 [Compound 27-2] | 27-2 (2) |  | 
5 | 115.27 ND ND ND ND | 72.21 ND ND ND ND | CCCn1c2ccccc2c2nc3ccccc3nc21 [1422, K02] |  | 1422, K02 (1) | 
6 |  |  | COC(=O)C1=C(C)N(c2cccc(C)c2)C(=O)/C1=C\c1cccs1 [Compound 27-5] | 27-5 (2) |  | 
7 | 103.69 ND ND ND ND | 70.89 ND ND ND ND | CCn1c2ccccc2c2nc3ccccc3nc21 [1422, G02] |  | 1422, G02 (1) | 
8 |  |  | COC(=O)C1=C(C)N(c2cccc(C(F)(F)F)c2)C(=O)/C1=C\c1cccs1 [Compound 27-7] | 27-7 (3) |  | 
9 |  |  | COC(=O)C1=C(C)N(c2ccccc2Cl)C(=O)/C1=C\c1cccs1 [Compound 27-8] | 27-8 (2) |  | 
10 | 86.04 ND ND ND ND | 40.53 ND ND ND ND | CC(C)Cn1c2ccccc2c2nc3ccccc3nc21 [1422, M02] |  | 1422, M02 (2) | 
11 |  |  | COC(=O)C1=CN(Cc2ccccc2)C(=O)/C1=C\c1cccs1 [Compound 27-4] | 27-4 (1) |  | 
12 | 103.46 ND ND ND ND | 31.38 ND ND ND ND | C=CCn1c2ccccc2c2nc3ccccc3nc21 [1427, P20] |  | 1427, P20 (3) | 
13 |  |  | CCOC(=O)c1sc2sc(C(=O)OCC)c(-c3ccc(Cl)cc3)c2c1N [2055, N01] |  |  | 1 Assay (20 uM) 4B3 (PDE4B3): 1.8421 ND ND ND ND; 1 Assay (20 uM) 4A5 (PDE4A5): 0.582 ND ND ND ND
14 |  |  | COC(=O)C1=C(C)N(c2ccc(F)cc2)C(=O)/C1=C\c1cccs1 [Compound 27-6] | 27-6 (4) |  | 
15 | 41.77 ND ND ND ND | 29.15 ND ND ND ND | O=C(O)Cn1c2ccc(Cl)cc2c2nc3ccccc3nc21 [1429, L06] |  | 1429, L06 (4) | 
16 |  |  | COC(=O)c1sc(SC)c(C#N)c1-c1ccco1 [2055, C21] |  |  | 1 Assay (20 uM) 4B3 (PDE4B3): 21.4955 ND ND ND ND; 1 Assay (20 uM) 4A5 (PDE4A5): 2.07 ND ND ND ND
